# Test results taken from patent US8440168B2, “Image-guided therapy of myocardial disease: composition, manufacturing and applications” (The Board of Regents of the University of Texas System, priority 2008, dated 2013).
# Tests used:
# [1] = system: breast tumor-bearing rats; test: Planar scintigraphic imaging in breast tumor-bearing rats; format: in vivo, Female Fischer 344 rats
# Experimental: (§1) To ascertain ^99mTc-EDA-ESM is a heart-specific agent, not tumor seeking agent, the inventors created a tumor model. Female Fischer 344 rats (125-175 g, n=5) were inoculated with breast cancer cells (13762NF, 10^6 cells/rat, s.c. in the hind leg). After 15-20 days and a tumor volume of […], the breast tumor-bearing rats were administered with 300 μCi of ^99mTc-EDA-ESM. Scintigraphic images, using a gamma camera equipped with low-energy, parallel-hole collimator, were obtained from 15 to 45 min. In separate studies, normal Female Fischer 344 rats ([…], n=5) were administered with 300 μCi of ^99mTc-EDA-ESM and scintigraphic images were obtained at 30-180 min. One rat was administered with 300 μCi of ^99mTc-EDA-ESM and SPECT/CT was performed at 45 min. […] In normal rats administered with ^99mTc-EDA-ESM (n=5), heart to muscle ([…]) count density uptake ratios were increased (2.7 to 5.1) at 30-180 min (FIG. 11).
# normal rat = test: SPECT/CT imaging of a normal rat; format: in vivo; settings: 300 μCi, SPECT/CT at 45 min
# Experimental: as §1
# [2] = breast tumor-bearing rats (13762NF), 300 μCi, planar scintigraphy 15 to 45 min
compound,measurement,setting,value
"CC(C)NCC(O)COc1ccc(CCC(=O)[N]2CC[NH][Tc]23(=[O])[NH]CC[N]3C(=O)CCc2ccc(OCC(O)CNC(C)C)cc2)cc1 (centres unmarked) [^99mTc-EDA-ESM, ^99mTc-Ethylenediamine-esmolol]",heart uptake,[1]; [2],high uptake
same,tumor visualization,[1]; [2],could not be visualized well
same,cardiac region count/pixels ratio (line profile curve),"[1]; breast tumor-bearing rats, 300 μCi/rat, 15-45 minutes, compared to laterally located tissues",high cardiac region count/pixels ratio
same,Heart to muscle (H/M) count density uptake ratios,"[1]; tumor-bearing rats (n=4), 300 μCi IV, sacrificed at 2 hrs, compared with heart/other tissue ratios",higher than other tissues
same,heart uptake (SPECT/CT),normal rat,high heart uptake
